The record followed here is US6271342A, “Sugar-modified cytostatics” (Bayer Aktiengesellschaft, priority 1995, dated 2001).

Where only a bound is given, the exact number is not on record here.

By IC50 is commonly meant the concentration that gives 50% inhibition.

The test system of one assay is HT 29. In words: Growth inhibition test (MTT) for cytotoxic properties. Conditions: Table 1a, glycoconjugates of batracyline. In kind it is cell-based, human. As to the method: (§1) Growth Inhibition Test for Determination of the Cytotoxic Properties of Glycoconjugates of Batracyline and of Quinolone-a
(§2) The human colon cell lines SW 480 and HT 29 (ATCC no. CCL 228 and HBT-38) and the mouse melanoma cell line B 16 F 10 were cultured in Roux dishes in RPMI 1640 medium with addition of 10% FCS. The cultures were then trypsinized and taken up in RPMI plus 10% FCS to a cell count of 50,000 cells/ml. 100 μl of cell suspension/well were introduced into a 96 microwell plate and incubated for 1 day at 37° C. in a CO2 incubating cabinet. A further 100 μl of RPMI medium and 1 μl of dimethyl sulphoxide with the test substances were then added. The growth was checked after day 3 and day 6. 40 μl of MTT solution (3-(4,5-dimethylthiazol-2-yl)-2,5-diphenyltetrazoline bromide) with an initial concentration of 5 mg/ml of H2 O were added to each microwave. The plate was incubated for 5 hours in a CO2 incubating cabinet at 37° C. The medium was then sucked off and 100 μl of i-propanol/well were added. After shaking for 30 minutes with 100 μl of H2 O, the extinction was measured at 540 nm with a Titertek Multiskan MCC/340 (Flow).
(§3) The cytotoxic action of the glycoconjugates of batracyline described is shown in Table 1a as the IC50 value in each case for the SW 480 and HT 29 cell lines.

A further assay concerns SW 480. The description is as above. The format is cell-based, human. Conditions: Table 1a, glycoconjugates of batracyline. Here is the method: as §1, §2, §3

For the substance “N-{N^α -[O-(3,4-Di-O-methyl-β-D-galactopyranosyl)-4-hydroxy-phenylamino-thio carbonyl]-N^ε -[O-(3-O-(piperidyl-N)-carbonylmethyl-β-D-galactopyranosyl)-4-hydroxy -phenylamino-thiocarbonyl]-lysyl-D-alanyl}-batracyline [Example 5.15]”, the IC50 with HT 29 is 70 µM; in the assay with SW 480, over 250 µM.
On the same counts, the results for “N-{N^α -[O-(3,4-Di-O-methyl-β-D-galactopyranosyl)-4-hydroxy-phenylamino-thio carbonyl]-N^ε -[O-(3-O-carbamoylmethyl-β-D-galactopyranosyl)-4-hydroxy-phenylamino- thiocarbonyl]-lysyl-D-alanyl}-batracyline [Example 5.21]” are 80 µM and 60 µM.
The matching figures for “N-{N^α -[O-(3-O-Carbamoylmethyl-β-D-galactopyranosyl)-4-hydroxy-phenylamino- thiocarbonyl]-N^ε -[O-(3-O-carboxymethyl-β-D-galactopyranosyl)-4-hydroxy-phenylamino-th iocarbonyl]-lysyl-D-alanyl}-batracyline, sodium salt [Example 5.20]”: 30 µM and 50 µM.
As for “N-{N^α -[O-(3-O-Carboxymethyl-β-D-galactopyranosyl)-4-hydroxy-phenylamino-th iocarbonyl]-N^ε -[O-(3,4-di-O-methyl-β-D-galactopyranosyl)-4-hydroxy-phenylamino-thio carbonyl]-lysyl-D-alanyl}-batracyline [Example 5.14]”, the IC50 came out at 30 µM in the assay on HT 29 and 20 µM in the assay with SW 480.
Regarding “N-{N^α -[O-(3-O-Carboxymethyl-β-D-galactopyranosyl)-4-hydroxy-phenylamino-th iocarbonyl]-N^ε -[O-(3-O-carbamoylmethyl-β-D-galactopyranosyl)-4-hydroxy-phenylamino- thiocarbonyl]-lysyl-D-alanyl}-batracyline, sodium salt [Example 5.23]”, the figures for the IC50 in the assay with HT 29 and with SW 480 were 35 µM and 25 µM, respectively.
Turning to “N-{N^α -[O-(3-O-Carboxymethyl-β-D-galactopyranosyl)-4-hydroxy-phenylamino-th iocarbonyl]-lysyl-D-alanyl}-batracyline, sodium salt [Example 4.9]”, the IC50 in the assay on HT 29 was 30 µM; with SW 480, 20 µM.
With “N-{N^α -[O-(3-O-Methoxycarbonylmethyl-[-D-galactopyranosyl)-4-hydroxy-phenylamino -thiocarbonyl]-lysyl-D-alanyl}-batracyline [Example 4.8]”, the 50% inhibitory concentration (IC50) was 40 µM in the assay with HT 29 and 50 µM in the assay with SW 480.
“N-{N^α -[O-(3-O-Methoxycarbonylmethyl-β-D-galactopyranosyl)-4-hydroxy-phenyl amino-thiocarbonyl]-N^ε -[O-(3-O-carbamoylmethyl-β-D-galactopyranosyl)-4-hydroxy-phenylamino- thiocarbonyl]-lysyl-D-alanyl}-batracyline [Example 5.22]”: the figures for the IC50 with HT 29 and with SW 480 were 40 µM and 30 µM, respectively.
With “N-{N^α -[O-(3-O-Methoxycarbonylmethyl-β-D-galactopyranosyl)-4-hydroxy-phenyl amino-thiocarbonyl]-N^ε -[O-(3-O-carboxymethyl-β-D-galactopyranosyl)-4-hydroxy-phenylamino-th iocarbonyl]-lysyl-D-alanyl}-batracyline, sodium salt [Example 5.19]”, the concentration for half-maximal inhibition (IC50) in the assay with HT 29 came out at 25 µM; in the assay on SW 480, 35 µM.
On the same counts, the results for “N-{N^α -[O-(3-O-Methoxycarbonylmethyl-β-D-galactopyranosyl)-4-hydroxyphenyla mino-thiocarbonyl]-N^ε -[O-(3,4-di-O-methyl-β-D-galactopyranosyl)-4-hydroxy-phenylamino-thio carbonyl]-lysyl-D-alanyl}-batracyline [Example 5.12]” are 20 µM and 20 µM.
On the same counts, the results for “N-{N^α -[O-(3-O-Methyl-α-D-mannopyranosyl)-4-hydroxy-phenylamino-thiocarbon yl]-lysyl-D-alanyl}-batracyline [Example 4.12]” are 9 µM and 15 µM.
On the same counts, the results for “N-{N^α -[O-(3-O-Methyl-β-D-galactopyranosyl)-4-hydroxy-phenylamino-thiocarbo nyl]-lysyl-D-alanyl}-batracyline [Example 4.7]” are 15 µM and 15 µM.
Turning to “N-{N^α -[O-(3-O-Methyl-β-L-fucosyl)-4-hydroxy-phenylamino-thiocarbonyl]-lysy l-D-alanyl}-batracyline [Example 4.3]”, the IC50 in the assay on HT 29 and in the assay on SW 480 was 20 µM throughout.
On to “N-{N^α -[O-(3-O-Methyl-β-L-fucosyl)-4-hydroxyphenylamino-thiocarbonyl]-N. sup.ε -[4-hydroxyethylamino-2-[O-(3-O-methyl-β-L-fucosyl)-4-hydroxyphenylam ino]triazin-6-yl]]-lysyl-D-alanyl}-batracyline [Example 5.8]”, for which the IC50 is over 250 µM in the assay on HT 29 and 100 µM in the assay on SW 480.
On the same counts, the results for “N-{N^α -[O-(3-O-Methyl-β-L-fucosyl)-4-hydroxyphenylamino-thiocarbonyl]-N. sup.ε -[O-(3-O-carboxymethyl-β-L-fucosyl)-4-hydroxyphenylamino-thiocarbonyl ]-lysyl-D-alanyl}-batracyline [Example 5.2]” are 55 µM and 20 µM.
On the same counts, the results for “N-{N^α -[O-(β-D-Galactopyranosyl)-4-hydroxy-phenylamino-thiocarbonyl]-lysyl- D-alanyl}-batracyline [Example 4.6]” are 10 µM and 10 µM.
For “N-{N^α,N^ε -Bis-10-(3-O-carbamoylmethyl-β-D-galactopyranosyl)-4-hydroxy-phenylam ino-thiocarbonyl]-lysyl-glycyl}-batracyline [Example 6.60]”, the concentration for half-maximal inhibition (IC50) in the assay with HT 29 amounted to 40 µM; in the assay with SW 480, 50 µM.
On the same counts, the results for “N-{N^α,N^ε -Bis-[O-(2-hydroxyethyl-β-L-fucosyl)-4-hydroxy-phenylamino-thiocarbon yl]-lysyl-D-alanyl}-batracyline [Example 6.10]” are 50 µM and 50 µM.
On the same counts, the results for “N-{N^α,N^ε -Bis-[O-(3,4-di-O-methyl-β-D-galactopyranosyl)-4-hydroxy-phenylamino- thiocarbonyl]-lysyl-D-seryl}-batracyline [Example 6.40]” are 60 µM and 170 µM.
Take “N-{N^α,N^ε -Bis-[O-(3,4-di-O-methyl-β-D-galactopyranosyl)-4-hydroxy-phenylamino- thiocarbonyl]-lysyl-seryl}-batracyline [Example 6.32]”: the IC50 in the assay on HT 29 and with SW 480 was 60 µM each time.
“N-{N^α,N^ε -Bis-[O-(3-O-carbamoylmethyl-β-D-galactopyranosyl)-4-hydroxy-phenylam ino-thiocarbonyl]-lysyl-D-seryl}-batracyline [Example 6.43]”: the IC50 in the assay with HT 29 was 80 µM; in the assay on SW 480, 90 µM.
With “N-{N^α,N^ε -Bis-[O-(3-O-carboxymethyl-β-D-galactopyranosyl)-4-hydroxy-phenylamin o-thiocarbonyl]-lysyl-D-asparagyl}-batracyline, di-sodium salt [Example 6.46]”, the IC50 was determined as 100 µM with HT 29 and 120 µM in the assay with SW 480.
